Test results from paper PMC6326728, “eIF2B activator prevents neurological defects caused by a chronic integrated stress response” (eLife, 2019).

Experiments:
eIF2B = target: T1, eIF2B (Mus musculus, UniProt Q61749+Q99LD9); experiment: GEF assay, Bodipy-FL-GDP release from eIF2, fluorescence; type: biochemical; conditions: activator; MEF lysate 0.1 mg/mL; 25 nM Bodipy-FL-GDP-loaded eIF2; 3 nM phospho-eIF2; 0.1 mM GDP; 25°C; homozygous R191H MEF lysate
T1 construct: gene Eif2b2; native endogenous complex in lysate of mouse embryonic fibroblasts; decamer of five subunits; with Translation initiation factor eIF2B subunit alpha; Translation initiation factor eIF2B subunit gamma; Translation initiation factor eIF2B subunit epsilon

5-HT2C (h) = target: T2, 5-HT2C (h) (Homo sapiens, UniProt P28335); experiment: biochemical; design: CEREP panel radioligand binding displacement, % inhibition of control specific binding by 10 uM 2BAct; conditions: Type=Antagonist radioligand; read-out: % inhibition of Control specific binding
T2 construct: gene HTR2C
T2 sequence (P28335 whole entry): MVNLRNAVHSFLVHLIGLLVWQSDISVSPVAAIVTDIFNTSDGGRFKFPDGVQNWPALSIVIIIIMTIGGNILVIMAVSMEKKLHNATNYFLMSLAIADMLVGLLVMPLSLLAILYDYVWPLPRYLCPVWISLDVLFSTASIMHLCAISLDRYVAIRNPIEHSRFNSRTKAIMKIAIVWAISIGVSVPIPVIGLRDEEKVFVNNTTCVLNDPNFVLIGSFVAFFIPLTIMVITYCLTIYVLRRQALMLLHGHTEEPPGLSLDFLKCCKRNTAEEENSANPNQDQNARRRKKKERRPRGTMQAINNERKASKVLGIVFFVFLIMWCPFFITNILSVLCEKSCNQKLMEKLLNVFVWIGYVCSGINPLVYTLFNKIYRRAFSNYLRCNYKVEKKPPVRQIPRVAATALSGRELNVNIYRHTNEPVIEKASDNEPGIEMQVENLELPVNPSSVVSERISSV
Protocol: (§1) Supplementary file elife-42940-supp1.xlsx: Supplementary file 1. (A) Binding of 2BAct at 10 μM to the CEREP panel of receptors/enzymes/ion channels. Compound binding was calculated as a % inhibition of the binding of a radioactively labeled ligand specific for each target. Results showing inhibition or stimulation higher than 50% are considered to represent significant effects of the test compound. (B) Pharmacokinetic data from 2BAct dosing in mice. (C) GO Biological Processes identified by enrichment analysis of RNA-seq data. (D) List of genes used for enrichment analysis of scRNA-seq data.

b2 (h) [1] = target: T3, b2 (h) (Homo sapiens, UniProt P07550); experiment: biochemical; design: CEREP panel radioligand binding displacement, % inhibition of control specific binding by 10 uM 2BAct; conditions: Type=Agonist radioligand; read-out: % inhibition of Control specific binding
T3 construct: gene ADRB2
T3 sequence (P07550 whole entry): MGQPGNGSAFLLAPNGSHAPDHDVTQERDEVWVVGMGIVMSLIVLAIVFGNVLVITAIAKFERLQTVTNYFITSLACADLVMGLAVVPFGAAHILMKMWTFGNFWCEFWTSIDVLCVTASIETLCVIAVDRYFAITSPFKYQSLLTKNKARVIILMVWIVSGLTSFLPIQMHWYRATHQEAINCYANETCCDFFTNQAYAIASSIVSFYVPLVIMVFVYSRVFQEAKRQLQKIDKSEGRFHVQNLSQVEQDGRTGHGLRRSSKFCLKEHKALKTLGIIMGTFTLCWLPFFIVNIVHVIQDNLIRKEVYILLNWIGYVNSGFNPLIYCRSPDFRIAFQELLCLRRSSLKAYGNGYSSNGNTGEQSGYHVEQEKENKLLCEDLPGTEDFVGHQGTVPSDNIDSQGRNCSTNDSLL
Protocol: as §1

a1A (h) = target: T4, a1A (h) (Homo sapiens, UniProt P35348); experiment: biochemical; design: CEREP panel radioligand binding displacement, % inhibition of control specific binding by 10 uM 2BAct; conditions: Type=Antagonist radioligand; read-out: % inhibition of Control specific binding
T4 construct: gene ADRA1A
Protocol: as §1

AT1 (h) = target: T5, AT1 (h) (Homo sapiens, UniProt P30556); experiment: biochemical; design: CEREP panel radioligand binding displacement, % inhibition of control specific binding by 10 uM 2BAct; conditions: Type=Antagonist radioligand; read-out: % inhibition of Control specific binding
T5 construct: gene AGTR1
T5 sequence (P30556 whole entry): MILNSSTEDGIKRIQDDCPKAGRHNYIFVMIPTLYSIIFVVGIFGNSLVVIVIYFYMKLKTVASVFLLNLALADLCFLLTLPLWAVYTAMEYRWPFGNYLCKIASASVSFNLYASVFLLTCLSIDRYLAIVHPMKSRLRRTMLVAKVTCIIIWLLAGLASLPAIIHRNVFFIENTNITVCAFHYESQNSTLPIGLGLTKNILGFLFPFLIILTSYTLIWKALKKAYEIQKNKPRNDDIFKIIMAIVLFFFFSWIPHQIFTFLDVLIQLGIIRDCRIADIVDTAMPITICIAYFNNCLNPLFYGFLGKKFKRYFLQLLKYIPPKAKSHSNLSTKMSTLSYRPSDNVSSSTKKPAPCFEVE
Protocol: as §1

motilin (h) = target: T6, motilin (h) (Homo sapiens, UniProt O43193); experiment: biochemical; design: CEREP panel radioligand binding displacement, % inhibition of control specific binding by 10 uM 2BAct; conditions: Type=Agonist radioligand; read-out: % inhibition of Control specific binding
T6 construct: gene MLNR
T6 sequence (O43193 whole entry): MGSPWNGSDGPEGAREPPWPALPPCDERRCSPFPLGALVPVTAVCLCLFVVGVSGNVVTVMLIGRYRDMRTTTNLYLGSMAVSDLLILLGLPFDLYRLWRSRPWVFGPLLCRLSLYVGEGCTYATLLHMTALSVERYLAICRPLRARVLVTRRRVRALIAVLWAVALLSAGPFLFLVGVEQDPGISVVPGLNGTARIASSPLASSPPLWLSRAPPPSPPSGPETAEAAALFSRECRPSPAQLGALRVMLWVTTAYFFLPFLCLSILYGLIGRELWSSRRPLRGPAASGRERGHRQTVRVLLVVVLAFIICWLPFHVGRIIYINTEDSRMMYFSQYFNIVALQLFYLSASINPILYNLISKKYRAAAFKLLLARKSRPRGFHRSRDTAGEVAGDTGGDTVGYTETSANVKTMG
Protocol: as §1

V1a (h) = target: T7, V1a (h) (Homo sapiens, UniProt P37288); experiment: biochemical; design: CEREP panel radioligand binding displacement, % inhibition of control specific binding by 10 uM 2BAct; conditions: Type=Agonist radioligand; read-out: % inhibition of Control specific binding
T7 construct: gene AVPR1A
Protocol: as §1

M2 (h) = target: T8, M2 (h) (Homo sapiens, UniProt P08172); experiment: biochemical; design: CEREP panel radioligand binding displacement, % inhibition of control specific binding by 10 uM 2BAct; conditions: Type=Antagonist radioligand; read-out: % inhibition of Control specific binding
T8 construct: gene CHRM2
T8 sequence (P08172 whole entry): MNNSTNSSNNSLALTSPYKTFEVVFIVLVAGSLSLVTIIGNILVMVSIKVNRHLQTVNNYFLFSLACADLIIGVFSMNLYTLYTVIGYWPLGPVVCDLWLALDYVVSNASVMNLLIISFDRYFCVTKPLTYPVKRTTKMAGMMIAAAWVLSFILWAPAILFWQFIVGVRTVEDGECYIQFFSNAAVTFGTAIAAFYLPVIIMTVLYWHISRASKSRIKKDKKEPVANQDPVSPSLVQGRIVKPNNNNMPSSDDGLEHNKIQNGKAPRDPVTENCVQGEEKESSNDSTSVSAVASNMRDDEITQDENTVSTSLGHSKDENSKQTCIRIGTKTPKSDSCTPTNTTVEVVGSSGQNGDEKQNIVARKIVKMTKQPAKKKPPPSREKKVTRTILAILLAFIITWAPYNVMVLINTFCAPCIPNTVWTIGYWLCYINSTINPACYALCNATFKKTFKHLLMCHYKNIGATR
Protocol: as §1

CB2 (h) = target: T9, CB2 (h) (Homo sapiens, UniProt P34972); experiment: biochemical; design: CEREP panel radioligand binding displacement, % inhibition of control specific binding by 10 uM 2BAct; conditions: Type=Agonist radioligand; read-out: % inhibition of Control specific binding
T9 construct: gene CNR2
T9 sequence (P34972 whole entry): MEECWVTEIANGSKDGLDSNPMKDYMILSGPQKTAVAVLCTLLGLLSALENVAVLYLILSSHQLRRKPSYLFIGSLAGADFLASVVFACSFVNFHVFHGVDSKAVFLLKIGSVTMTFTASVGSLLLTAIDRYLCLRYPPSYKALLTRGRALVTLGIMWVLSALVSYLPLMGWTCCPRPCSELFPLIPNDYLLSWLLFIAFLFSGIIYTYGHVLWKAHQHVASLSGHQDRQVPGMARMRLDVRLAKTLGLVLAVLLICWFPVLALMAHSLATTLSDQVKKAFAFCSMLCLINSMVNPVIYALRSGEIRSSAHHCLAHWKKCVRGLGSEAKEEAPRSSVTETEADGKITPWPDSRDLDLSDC
Protocol: as §1

b1 (h) = target: T10, b1 (h) (Homo sapiens, UniProt P08588); experiment: biochemical; design: CEREP panel radioligand binding displacement, % inhibition of control specific binding by 10 uM 2BAct; conditions: Type=Agonist radioligand; read-out: % inhibition of Control specific binding
T10 construct: gene ADRB1
Protocol: as §1

a2A (h) = target: T11, a2A (h) (Homo sapiens, UniProt P08913); experiment: biochemical; design: CEREP panel radioligand binding displacement, % inhibition of control specific binding by 10 uM 2BAct; conditions: Type=Antagonist radioligand; read-out: % inhibition of Control specific binding
T11 construct: gene ADRA2A
Protocol: as §1

5-HT4E (h) = target: T12, 5-HT4E (h) (Homo sapiens, UniProt Q13639); experiment: biochemical; design: CEREP panel radioligand binding displacement, % inhibition of control specific binding by 10 uM 2BAct; conditions: Type=Antagonist radioligand; read-out: % inhibition of Control specific binding
T12 construct: gene HTR4; isoform 4E
T12 sequence (Q13639 whole entry, canonical isoform): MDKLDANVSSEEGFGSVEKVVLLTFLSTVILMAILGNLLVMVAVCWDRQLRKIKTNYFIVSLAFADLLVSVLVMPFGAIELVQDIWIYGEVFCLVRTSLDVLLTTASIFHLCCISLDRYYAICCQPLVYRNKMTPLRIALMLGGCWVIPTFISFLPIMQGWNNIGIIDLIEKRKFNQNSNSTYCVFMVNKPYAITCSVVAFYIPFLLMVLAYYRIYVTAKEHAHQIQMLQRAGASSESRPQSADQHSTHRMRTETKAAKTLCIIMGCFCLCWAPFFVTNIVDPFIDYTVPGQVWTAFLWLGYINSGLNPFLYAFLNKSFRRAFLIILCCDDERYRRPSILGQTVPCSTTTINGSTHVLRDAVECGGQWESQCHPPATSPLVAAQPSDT
Protocol: as §1

UT (h) = target: T13, UT (h) (Homo sapiens, UniProt Q9UKP6); experiment: biochemical; design: CEREP panel radioligand binding displacement, % inhibition of control specific binding by 10 uM 2BAct; conditions: Type=Agonist radioligand; read-out: % inhibition of Control specific binding
T13 construct: gene UTS2R
Protocol: as §1

M1 (h) = target: T14, M1 (h) (Homo sapiens, UniProt P11229); experiment: biochemical; design: CEREP panel radioligand binding displacement, % inhibition of control specific binding by 10 uM 2BAct; conditions: Type=Antagonist radioligand; read-out: % inhibition of Control specific binding
T14 construct: gene CHRM1
T14 sequence (P11229 whole entry): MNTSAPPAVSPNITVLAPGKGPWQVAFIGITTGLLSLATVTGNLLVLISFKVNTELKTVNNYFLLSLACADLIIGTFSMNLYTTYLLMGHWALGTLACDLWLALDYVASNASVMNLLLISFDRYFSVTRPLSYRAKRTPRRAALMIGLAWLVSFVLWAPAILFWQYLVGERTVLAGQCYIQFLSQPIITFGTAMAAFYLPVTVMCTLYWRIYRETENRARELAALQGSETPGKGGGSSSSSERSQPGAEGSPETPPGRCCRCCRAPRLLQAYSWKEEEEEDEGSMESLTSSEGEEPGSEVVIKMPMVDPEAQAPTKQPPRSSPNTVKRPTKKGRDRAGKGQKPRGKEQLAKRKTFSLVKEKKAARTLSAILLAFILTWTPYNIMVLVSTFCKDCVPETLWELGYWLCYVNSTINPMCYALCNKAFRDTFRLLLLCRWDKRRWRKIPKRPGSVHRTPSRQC
Protocol: as §1

BZD (peripheral) = target: T15, BZD (peripheral) (Rattus norvegicus, UniProt P16257); experiment: biochemical; design: CEREP panel radioligand binding displacement, % inhibition of control specific binding by 10 uM 2BAct; conditions: Type=Antagonist radioligand; read-out: % inhibition of Control specific binding
T15 construct: gene Tspo; peripheral
T15 sequence (P16257 whole entry): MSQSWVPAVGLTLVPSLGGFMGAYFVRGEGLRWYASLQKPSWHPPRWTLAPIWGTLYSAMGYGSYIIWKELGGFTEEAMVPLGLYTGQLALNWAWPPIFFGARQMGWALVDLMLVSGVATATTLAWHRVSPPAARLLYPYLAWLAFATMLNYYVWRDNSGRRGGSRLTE
Protocol: as §1

MT2 (ML1B) (h) = target: T16, MT2 (ML1B) (h) (Homo sapiens, UniProt P49286); experiment: biochemical; design: CEREP panel radioligand binding displacement, % inhibition of control specific binding by 10 uM 2BAct; conditions: Type=Agonist radioligand; read-out: % inhibition of Control specific binding
T16 construct: gene MTNR1B
T16 sequence (P49286 whole entry): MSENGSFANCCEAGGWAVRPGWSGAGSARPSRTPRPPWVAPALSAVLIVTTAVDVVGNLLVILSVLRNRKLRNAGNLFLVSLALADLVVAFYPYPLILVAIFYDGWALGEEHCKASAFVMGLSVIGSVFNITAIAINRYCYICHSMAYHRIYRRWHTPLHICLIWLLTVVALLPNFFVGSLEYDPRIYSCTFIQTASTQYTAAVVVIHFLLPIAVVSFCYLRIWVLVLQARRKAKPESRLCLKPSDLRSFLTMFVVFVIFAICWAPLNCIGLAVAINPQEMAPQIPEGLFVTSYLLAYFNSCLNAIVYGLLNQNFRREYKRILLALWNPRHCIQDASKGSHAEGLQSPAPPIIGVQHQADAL
Protocol: as §1

D1 (h) = target: T17, D1 (h) (Homo sapiens, UniProt P21728); experiment: biochemical; design: CEREP panel radioligand binding displacement, % inhibition of control specific binding by 10 uM 2BAct; conditions: Type=Antagonist radioligand; read-out: % inhibition of Control specific binding
T17 construct: gene DRD1
T17 sequence (P21728 whole entry): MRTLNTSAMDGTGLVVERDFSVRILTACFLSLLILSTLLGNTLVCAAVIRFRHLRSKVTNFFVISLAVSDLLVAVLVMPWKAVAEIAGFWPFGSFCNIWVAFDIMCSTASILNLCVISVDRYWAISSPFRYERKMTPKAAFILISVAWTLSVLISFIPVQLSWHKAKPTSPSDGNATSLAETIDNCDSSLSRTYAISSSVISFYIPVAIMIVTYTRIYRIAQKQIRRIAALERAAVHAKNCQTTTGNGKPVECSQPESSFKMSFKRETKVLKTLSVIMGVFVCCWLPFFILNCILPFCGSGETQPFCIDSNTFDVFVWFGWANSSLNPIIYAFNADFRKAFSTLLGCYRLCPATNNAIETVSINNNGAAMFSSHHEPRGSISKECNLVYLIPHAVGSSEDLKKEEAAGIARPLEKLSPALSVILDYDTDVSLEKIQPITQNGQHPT
Protocol: as §1

H2 (h) = target: T18, H2 (h) (Homo sapiens, UniProt P25021); experiment: biochemical; design: CEREP panel radioligand binding displacement, % inhibition of control specific binding by 10 uM 2BAct; conditions: Type=Antagonist radioligand; read-out: % inhibition of Control specific binding
T18 construct: gene HRH2
Protocol: as §1

ET-A (h) = target: T19, ET-A (h) (Homo sapiens, UniProt P25101); experiment: biochemical; design: CEREP panel radioligand binding displacement, % inhibition of control specific binding by 10 uM 2BAct; conditions: Type=Agonist radioligand; read-out: % inhibition of Control specific binding
T19 construct: gene EDNRA
T19 sequence (P25101 whole entry): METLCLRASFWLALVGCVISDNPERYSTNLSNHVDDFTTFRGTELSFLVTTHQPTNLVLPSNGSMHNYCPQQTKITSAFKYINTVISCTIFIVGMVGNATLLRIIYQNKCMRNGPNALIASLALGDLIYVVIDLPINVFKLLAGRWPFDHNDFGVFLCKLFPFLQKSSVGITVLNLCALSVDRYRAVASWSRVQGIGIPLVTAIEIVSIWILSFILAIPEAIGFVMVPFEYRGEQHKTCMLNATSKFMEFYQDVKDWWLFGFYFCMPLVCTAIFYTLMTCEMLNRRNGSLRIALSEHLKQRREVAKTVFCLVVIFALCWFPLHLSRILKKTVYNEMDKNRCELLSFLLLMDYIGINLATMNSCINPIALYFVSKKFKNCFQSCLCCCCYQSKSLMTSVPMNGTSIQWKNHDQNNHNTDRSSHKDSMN
Protocol: as §1

B2 (h) [2] = target: T20, B2 (h) (Homo sapiens, UniProt P30411); experiment: biochemical; design: CEREP panel radioligand binding displacement, % inhibition of control specific binding by 10 uM 2BAct; conditions: Type=Agonist radioligand; read-out: % inhibition of Control specific binding
T20 construct: gene BDKRB2
Protocol: as §1

a2B (h) = target: T21, a2B (h) (Homo sapiens, UniProt P18089); experiment: biochemical; design: CEREP panel radioligand binding displacement, % inhibition of control specific binding by 10 uM 2BAct; conditions: Type=Antagonist radioligand; read-out: % inhibition of Control specific binding
T21 construct: gene ADRA2B
Protocol: as §1

## O=C(COc1ccc(Cl)c(F)c1)NC12CC(NC(=O)c3cnc(C(F)F)cn3)(C1)C2 [2BAct]
eIF2B
  EC50: 7.3 nM
5-HT2C (h)
  inhibition at 10 µM: 38.7%
b2 (h) [1]
  inhibition at 10 µM: 4.4%
a1A (h)
  inhibition at 10 µM: 6.6%
AT1 (h)
  inhibition at 10 µM: 13.2%
Motilin (h)
  inhibition at 10 µM: -10.8%
V1a (h)
  inhibition at 10 µM: 6.4%
M2 (h)
  inhibition at 10 µM: 4.2%
CB2 (h)
  inhibition at 10 µM: 2%
b1 (h)
  inhibition at 10 µM: 7.8%
a2A (h)
  inhibition at 10 µM: -5.5%
5-HT4E (h)
  inhibition at 10 µM: 8.2%
UT (h)
  inhibition at 10 µM: 5.8%
M1 (h)
  inhibition at 10 µM: 2.6%
BZD (peripheral)
  inhibition at 10 µM: 36.2%
MT2 (ML1B) (h)
  inhibition at 10 µM: -2%
D1 (h)
  inhibition at 10 µM: 5.9%
H2 (h)
  inhibition at 10 µM: -17.4%
ET-A (h)
  inhibition at 10 µM: -5.3%
B2 (h) [2]
  inhibition at 10 µM: 8.7%
a2B (h)
  inhibition at 10 µM: 12.2%
